Patent US10047073B2, “Histone deacetylase inhibitors and compositions and methods of use thereof” (CHDI Foundation, Inc., priority 2015, dated 2018)
pIC50: −log10 of the molar value. Structures can show the parent of a compound that is named as a salt.

Legend:
[1] = tested on: cellular Class I HDAC activity in Jurkat E6-1 cells; experiment: Inhibition of cellular Class I HDAC activity, Cell (Lys-Ac) substrate; assay type: cell-based; settings: Boc-Lys(Ac)-AMC
Method: Example 18: Analysis of Inhibition of Cellular Class I HDAC Activity with Class IIa Histone Deacetylase (HDAC) Inhibitors: Cell (Lys-Ac) Substrate
The Class I HDAC activity of Class IIa Histone Deacetylase (HDAC) inhibitors was quantified by measuring the cellular histone deacetylase enzymatic activity using the fluorogenic substrate, Boc-Lys(Ac)-AMC. This was performed according to the procedure in Example 17, using Boc-Lys(Ac)-AMC substrate in place of Boc-Lys(TFA)-AMC.

[2] = tested on: cellular Class IIa HDAC activity in Jurkat E6-1 cells; experiment: Inhibition of cellular Class IIa HDAC activity, Cell (Lys-TFA) substrate; assay type: cell-based; settings: Boc-Lys(TFA)-AMC
From the text: Example 17: Analysis of Inhibition of Cellular Class IIa HDAC Activity with Class IIa Histone Deacetylase (HDAC) Inhibitors: Cell (Lys-TFA) Substrate
The potency of Class IIa Histone Deacetylase (HDAC) inhibitors was quantified by measuring the cellular histone deacetylase enzymatic activity using the fluorogenic substrate, Boc-Lys(TFA)-AMC. After penetration in Jurkat E6-1 cells, the substrate was deacetylated to Boc-Lys-AMC. After cell lysis and cleavage by trypsin, the fluorophore AMC was released from the deacetylated substrate only. The fluorescence of the sample was directly related to the histone deacetylase activity in the sample.
Jurkat E6.1 cells were cultured according to standard cell culture protocols in Jurkat E6.1 Growth Media (RPMI without phenol red, 10% FBS, 10 mM HEPES, and 1 mM Sodium Pyruvate). Jurkat E6.1 cells were counted using a Coulter Counter and resuspended in Jurkat E6.1 growth media at a concentration of 75,000 cells/35 μL. 35 μL or 75,000 cells was seeded into Greiner microtitre assay plates. The plates were then incubated at 37° C. and 5% CO2 while other assay components were being prepared.
(§1) Serial dilutions of the HDAC inhibitors and control reference compound (1-(5-(3-((4-(1,3,4-oxadiazol-2-yl)phenoxy)methyl)-1,2,4-oxadiazol-5-yl)thiophen-2-yl)-2,2,2-trifluoroethanone) were made by first resuspending the lyophilized compound to a final concentration of 10 mM in 100% DMSO. Stocks of 70 aliquots of the 10 mM compound in DMSO were prepared and stored at −20° C. From one stock aliquot of each tested compound and the reference compound, a 16-point serial dilution was prepared according to Table 1 using a 125 μL 16-channel Matrix multi-channel pipette.
2 μL (200×) of each diluted solution and each control (full activity: 100% DMSO alone or full inhibition 1 mM) was stamped into V-bottom polypropylene 384-well compound plates using either the Bravo, Janus, or 12.5 μL 16-channel Matrix multi-channel pipette. Each well with the 200× compound solution was diluted 1:20 by the addition of 38 μL Jurkat assay buffer+DMSO (9.5% DMSO, RPMI without phenol red, 0.09% FBS, 9 mM Hepes, and 0.9 mM Sodium Pyruvate equilibrated to r.t.)
5× (500 μM) substrate was prepared just prior to the addition to the assay. The 5× substrate was prepared by diluting a 100 mM Boc-Lys(TFA)-AMC in DMSO solution 1:200 by adding it drop-wise to Jurkat assay medium (RPMI without phenol red, 0.1% FBS, 10 mM Hepes, and 1 mM Sodium Pyruvate equilibrated to 37° C.) while vortexing at slow speed to prevent precipitation.
10 mL of 3× lysis buffer was prepared with 8.8 mL of 3× stock lysis buffer (50 mM Tris-HCl, pH 8.0, 137 mM NaCl, 2.7 mM KCl, 1 mM MgCl2, 1% Nonidet P40 Substitute equilibrated to r.t.) and 1.2 mL of 3 mg/mL Trypsin equilibrated to r.t.
5 μL of each solution of 1:20 diluted compound from above was transferred to the Greiner microtitre assay plates with 75,000 cells/well using the Bravo. Cells were then incubated for 2 hours at 37° C. and 5% CO2. The assay was then started by adding 10 μL of 5× (500 μM) substrate to the assay plate using either the Bravo or 16-channel Matrix multi-channel pipette. The cells were then incubated for 3 hours at 37° C. and 5% CO2. Next, 25 μL of 3× lysis buffer was added to each well using either the 125 μL 16 channel pipette or the Bravo. The assay plate was then incubated overnight (15-16 hours) at 37° C. and 5% CO2. The following day, the plates were shaken on an orbital shaker for 1 minute at 900 rpm. Finally the top read fluorescence (Excitation: 355 nm, Emission: 460 nm) was measured using PerkinElmer EnVision.

[3] = target: human catalytic domain HDAC4 protein (Homo sapiens (Human), UniProt P56524); experiment: Inhibition of HDAC4 catalytic domain, Boc-Lys(TFA)-AMC fluorogenic substrate; settings: read-out: HDAC4 Biochemical IC50
Sequence of human catalytic domain HDAC4 protein (P56524 648-1032): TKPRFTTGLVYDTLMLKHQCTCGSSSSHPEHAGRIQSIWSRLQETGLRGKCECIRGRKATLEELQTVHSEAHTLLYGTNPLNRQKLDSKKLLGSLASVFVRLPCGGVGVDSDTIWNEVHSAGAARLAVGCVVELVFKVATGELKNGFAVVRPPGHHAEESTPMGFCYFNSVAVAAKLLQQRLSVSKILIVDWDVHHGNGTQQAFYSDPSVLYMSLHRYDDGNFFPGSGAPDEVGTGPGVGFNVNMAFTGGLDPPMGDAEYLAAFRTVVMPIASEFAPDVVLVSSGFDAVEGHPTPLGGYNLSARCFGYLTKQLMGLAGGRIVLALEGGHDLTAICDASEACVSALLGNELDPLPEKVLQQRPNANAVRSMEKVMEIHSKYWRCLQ
From the text: Example 13: Analysis of Inhibition of HDAC4 with Class IIa Histone Deacetylase (HDAC) Inhibitors
The potency of Class IIa Histone Deacetylase (HDAC) inhibitors was quantified by measuring the Histone Deacetylase 4 (HDAC4) catalytic domain enzymatic activity using the fluorogenic substrate, Boc-Lys(TFA)-AMC. The substrate was deacetylated to Boc-Lys-AMC by HDAC4. […] The fluorescence of the sample was directly related to the histone deacetylase activity in the sample.
as §1, with “dimethyl sulfoxide (DMSO).” for “DMSO.”, “60 μL” for “70”, “pipette (Matrix Technologies Ltd).” for “pipette.”
2 μL (200×) of each diluted solution and each control (full activity: 100% DMSO alone or full inhibition 1 mM) was stamped into V-bottomed polypropylene 384-well compound plates using either the Bravo (384-well head from Agilent) or 12.5 μL 16-channel Matrix multi-channel pipette (Matrix Technologies Ltd). Each well with the 200× compound solution was diluted 1:20 by the addition of 38 μL assay buffer+DMSO (10.5% DMSO, 45 mM Tris-HCl, 123 mM NaCl, 2.4 mM KCl, and 0.9 mM MgCl2 at pH 8.0 and equilibrated to r.t.).
The HDAC4 catalytic domain enzyme was human catalytic domain HDAC4 protein (amino acids 648-1032) with a C-terminal 6× histidine tag, produced by BioFocus. A working solution of enzyme was prepared from a 500 μg/mL stock aliquot of HDAC4 catalytic domain (thawed on ice) diluted to 0.2 μg/mL with assay buffer (50 mM Tris-HCl, 137 mM NaCl, 2.7 mM KCl, and 1 mM MgCl2 at pH 8 and equilibrated to r.t.) just prior to the addition of the enzyme to the assay.
5× (50 μM) substrate was prepared just prior to the addition to the assay. A 1 mM substrate stock was made by diluting a 100 mM Boc-Lys(TFA)-AMC in DMSO solution 1:100 by adding it drop-wise to assay buffer (equilibrated to r.t.) while vortexing at slow speed to prevent precipitation. The 5× substrate was prepared by diluting the 1 mM substrate solution 1:20 by adding it drop-wise to assay buffer (equilibrated to r.t.) while vortexing at slow speed to prevent precipitation.
3× (30 μM) Developer/Stop Solution was prepared just prior to addition to the plate by diluting a stock solution of 10 mM reference compound 1:333 in 25 mg/mL trypsin (PAA Laboratories Ltd.) equilibrated to r.t.
5 μL of each solution of 1:20 diluted compound from above was transferred to a clear bottomed, black, 384-well assay plate using the Bravo or the Janus (384-well MDT head from Perkin Elmer). Using a 16-channel Matrix multi-channel pipette, 35 μL of the working solution of HDAC4 catalytic domain enzyme (0.2 μg/mL in assay buffer) was transferred to the assay plate. The assay was then started by adding 10 μL of 5× (50 μM) substrate to the assay plates using either the Bravo, Janus or 16-channel Matrix multi-channel pipette. The assay plate was then shaken for two minutes on an orbital shaker at 900 rpm (rotations per minute). Next the plate was incubated for 15 minutes at 37° C. The reaction was stopped by adding 25 μL of 3× (30 μM) developer/stop solution to the assay plates using either the Bravo, Janus or a 16-channel Matrix multi-channel pipette. Assay plates were then shaken for 5 minutes on an orbital shaker at 1200 rpm. Next, the assay plates were incubated at 37° C. for 1 hour in a tissue culture incubator. Finally, the fluorescence was measured (Excitation: 355 nm, Emission: 460 nm) using PerkinElmer EnVision in top read mode.

[4] = Homo sapiens, Jurkat E6.1, Jurkat E6.1 cells

pIC50 ([1]; Jurkat E6.1 cells) | pIC50 [2, 4] | pIC50 [3] | pIC50 ([2]; Jurkat E6.1 cells) | pIC50 [1, 4] | Compound
 | 6.85 | 7.30 |  | 5.59 | O=C(NC1(CN2CCCC3(CC3)C2)CC1)c1ccc(-c2noc(C(F)(F)F)n2)cc1 [Example 1, N-(1-(5-Azaspiro[2.5]octan-5-ylmethyl)cyclopropyl)-4-(5-(trifluoromethyl)-1,2,4-oxadiazol-3-yl)benzamide]
 | 6.43 | 7.05 |  | 5.70 | O=C(NC1(CN2CCC3(CC2)CC3)CC1)c1ccc(-c2noc(C(F)(F)F)n2)cc1 [Example 5, N-(1-(6-Azaspiro[2.5]octan-6-ylmethyl)cyclopropyl)-4-(5-(trifluoromethyl)-1,2,4-oxadiazol-3-yl)benzamide]
 | 7.35 | 7.52 |  | 5.60 | CC1(C)CCCN(CC2(NC(=O)c3ccc(-c4noc(C(F)(F)F)n4)cc3)CC2)C1 [Example 8, N-(1-((3,3-Dimethylpiperidin-1-yl)methyl)cyclopropyl)-4-(5-(trifluoromethyl)-1,2,4-oxadiazol-3-yl)benzamide formate]
 | 7.00 | 7.24 |  | 6.15 | O=C(NC1(CN2CCC3(CC3)C2)CCC1)c1ccc(-c2noc(C(F)(F)F)n2)cc1 [Example 9, N-(1-(5-Azaspiro[2.4]heptan-5-ylmethyl)cyclobutyl)-4-(5-(trifluoromethyl)-1,2,4-oxadiazol-3-yl)benzamide]
 | 6.51 | 7.12 |  | 4.82 | CC1(C)CCCN(CC2(NC(=O)c3ccc(-c4noc(C(F)(F)F)n4)c(F)c3)CC2)C1 [Example 12, N-(1-((3,3-Dimethylpiperidin-1-yl)methyl)cyclopropyl)-3-fluoro-4-(5-(trifluoromethyl)-1,2,4-oxadiazol-3-yl)benzamide]

Further lines, the compound ahead of its results:

Compound | pIC50 ([1]; Jurkat E6.1 cells) | pIC50 [2, 4] | pIC50 [3] | pIC50 ([2]; Jurkat E6.1 cells) | pIC50 [1, 4]
O=C(NC1(CN2CCCC2C2CC2)CC1)c1ccc(-c2noc(C(F)(F)F)n2)cc1 (single isomer, unassigned) [Example 6, E1-(abs)-N-(1-((2-Cyclopropylpyrrolidin-1-yl)methyl)cyclopropyl)-4-(5-(trifluoromethyl)-1,2,4-oxadiazol-3-yl)benzamide] | 5.82 | 7.55 | 8.10 |  | 
O=C(NC1(CN2CCCC2C2CC2)CC1)c1ccc(-c2noc(C(F)(F)F)n2)cc1 (single isomer, unassigned) [Example 7, E2-(abs)-N-(1-((2-Cyclopropylpyrrolidin-1-yl)methyl)cyclopropyl)-4-(5-(trifluoromethyl)-1,2,4-oxadiazol-3-yl)benzamide] | 6.27 |  | 8.52 | 7.85 | 
C[C@H]1CCCN1CC1CC1NC(=O)c1ccc(-c2noc(C(F)(F)F)n2)cc1 (single isomer, unassigned) [Example 11] |  | 6.00 | 6.64 |  | 4.44
O=C(NC1(CN2CCC3(CC2)COC3)CC1)c1ccc(-c2noc(C(F)(F)F)n2)cc1 [Example 2, N-(1-(2-Oxa-7-azaspiro[3.5]nonan-7-ylmethyl)cyclopropyl)-4-(5-(trifluoromethyl)-1,2,4-oxadiazol-3-yl)benzamide] |  | 6.62 | 6.96 |  | 5.31
O=C(NC1(CN2CCCC23COC3)CC1)c1ccc(-c2noc(C(F)(F)F)n2)cc1 [Example 3, N-(1-(2-Oxa-5-azaspiro[3.4]octan-5-ylmethyl)cyclopropyl)-4-(5-(trifluoromethyl)-1,2,4-oxadiazol-3-yl)benzamide] |  | 6.41 | 6.12 |  | 5.07
O=C(NC1(CN2CC3CCC(C3)C2)CC1)c1ccc(-c2noc(C(F)(F)F)n2)cc1 [Example 4, N-(1-(-3-Azabicyclo[3.2.1]octan-3-ylmethyl)cyclopropyl)-4-(5-(trifluoromethyl)-1,2,4-oxadiazol-3-yl)benzamide] |  | 6.16 |  |  | 5.11
O=C(NC1(CN2CCCC23COC3)CCC1)c1ccc(-c2noc(C(F)(F)F)n2)cc1 [Example 10, N-(1-(2-Oxa-5-azaspiro[3.4]octan-5-ylmethyl)cyclobutyl)-4-(5-(trifluoromethyl)-1,2,4-oxadiazol-3-yl)benzamide] |  | 6.41 | 6.12 |  | 5.07
